# In patent US8716440B2, “Method of liberating and recovering peptide” (Sysmex Corporation, priority 2011, dated 2014):
# Residues, ends and D or L forms follow the SMILES beside them.
# How the values were obtained:
# [1] = biological target: T1, bovine serum albumin (BSA) (Bos taurus, UniProt P02769); experiment: Fluorescence titration method, Kd between BSA and peptide; type: binding
# T1 construct: purchased Sigma-Aldrich Japan Inc
# Source text: FITC-SA21 (Biologica Co, Ltd.) in which SA21 consisting of 18 amino acids was labeled with fluorescein isothiocyanate (FITC) (a green fluorescent dye) was used as a peptide. The SA21 is an acidic peptide. The used albumin was BSA (Sigma-Aldrich Japan Inc.).
# [2] = biological target: T2, human serum albumin (HSA) (Homo sapiens, UniProt P02768); experiment: Fluorescence titration method, Kd between HSA and peptide; type: binding; conditions: solution in ultrapure water: ACTH partial peptide 34 μM, TMR-ACTH partial peptide 6 μM, HSA 600 μM
# T2 construct: purchased Sigma-Aldrich Japan Inc
# T2 sequence (P02768 25-609): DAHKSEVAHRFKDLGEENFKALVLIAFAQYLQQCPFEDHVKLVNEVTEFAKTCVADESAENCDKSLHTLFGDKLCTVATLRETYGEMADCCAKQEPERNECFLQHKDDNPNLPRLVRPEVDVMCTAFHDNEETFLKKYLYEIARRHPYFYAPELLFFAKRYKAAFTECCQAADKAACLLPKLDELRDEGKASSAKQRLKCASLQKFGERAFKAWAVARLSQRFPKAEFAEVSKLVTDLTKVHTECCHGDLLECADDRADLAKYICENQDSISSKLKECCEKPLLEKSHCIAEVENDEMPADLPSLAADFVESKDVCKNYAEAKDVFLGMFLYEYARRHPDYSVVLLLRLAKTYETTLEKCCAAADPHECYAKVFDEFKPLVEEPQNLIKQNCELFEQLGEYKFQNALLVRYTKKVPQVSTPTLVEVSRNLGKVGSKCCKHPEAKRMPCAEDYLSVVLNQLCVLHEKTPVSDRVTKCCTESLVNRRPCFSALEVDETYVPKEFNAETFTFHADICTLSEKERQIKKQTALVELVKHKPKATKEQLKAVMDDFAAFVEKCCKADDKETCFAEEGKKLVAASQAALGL
# Source text: The ACTH is a basic peptide. The used albumin was human serum albumin (HSA, Sigma-Aldrich Japan Inc.).
# T1 sequence (P02769 25-607): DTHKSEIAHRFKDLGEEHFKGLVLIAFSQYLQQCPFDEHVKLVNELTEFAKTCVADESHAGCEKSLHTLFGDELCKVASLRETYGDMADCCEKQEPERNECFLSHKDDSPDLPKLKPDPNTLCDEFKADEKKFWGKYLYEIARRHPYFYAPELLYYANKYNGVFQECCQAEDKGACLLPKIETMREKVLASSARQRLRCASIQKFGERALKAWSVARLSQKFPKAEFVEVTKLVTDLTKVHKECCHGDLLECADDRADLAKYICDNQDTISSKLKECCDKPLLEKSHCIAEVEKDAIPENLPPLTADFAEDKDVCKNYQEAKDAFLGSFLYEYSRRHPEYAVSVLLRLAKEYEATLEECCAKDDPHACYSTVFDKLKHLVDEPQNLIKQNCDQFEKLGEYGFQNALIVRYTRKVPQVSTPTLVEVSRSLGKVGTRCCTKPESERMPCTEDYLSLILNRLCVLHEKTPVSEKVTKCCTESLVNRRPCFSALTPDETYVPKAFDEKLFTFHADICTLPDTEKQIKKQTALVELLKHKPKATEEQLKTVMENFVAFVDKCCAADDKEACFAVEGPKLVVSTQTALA
SMILES,"Kd ([1]; fluorescence titration, read-out: Kd value between the BSA and FITC-SA21) [µM]","fraction of FITC-SA21 forming a complex with albumin ([1]; solution in ultrapure water: FITC-SA21 43 (M, BSA 100 (M)), printed as complex with the HSA) [%]",affinity of binding to BSA relative to affinity of binding between the HSA and ACTH partial peptide ([1]; times stronger than HSA/ACTH partial peptide binding) [times],fraction of peptide forming a complex with the HSA [2] [%]
"CC[C@H](C)[C@H](NC(=O)[C@H](CC(C)C)NC(=O)[C@H](CCCNC(=N)N)NC(=S)Nc1ccc2c(c1)C(=O)OC21c2ccc(O)cc2Oc2cc(O)ccc21)C(=O)N[C@@H](CCC(=O)O)C(=O)N[C@@H](CC(=O)O)C(=O)N[C@H](C(=O)N[C@H]1CSSC[C@@H](C(=O)N[C@@H](CC(C)C)C(=O)N[C@@H](Cc2c[nH]c3ccccc23)C(=O)N[C@@H](CCC(=O)O)C(=O)N[C@@H](CC(=O)O)C(=O)N[C@@H](CC(=O)O)C(N)=O)NC(=O)CNC(=O)[C@H](Cc2c[nH]c3ccccc23)NC(=O)[C@H](CCCNC(=N)N)NC(=O)[C@@H]2CCCN2C(=O)[C@H](CC(C)C)NC1=O)[C@@H](C)CC [FITC-SA21] (HELM PEPTIDE1{[O=C1OC2(c3ccc(O)cc3Oc3cc(O)ccc32)c2ccc(NC(=S)[*:2])cc21].R.L.I.E.D.I.C.L.P.R.W.G.C.L.W.E.D.D.[am]}$PEPTIDE1,PEPTIDE1,8:R3-14:R3$$$V2.0; N-terminus and C-terminus assumed)",≤ 1,98.3,6,–
CSCC[C@H](NC(=O)[C@H](CO)NC(=O)[C@H](Cc1ccc(O)cc1)NC(=O)[C@H](CO)NC(=O)c1ccc2c(c1)C(=O)OC21c2ccc(N(C)C)cc2Oc2cc(N(C)C)ccc21)C(=O)N[C@@H](CCC(=O)O)C(=O)N[C@@H](Cc1c[nH]cn1)C(=O)N[C@@H](Cc1ccccc1)C(=O)N[C@@H](CCCNC(=N)N)C(=O)N[C@@H](Cc1c[nH]c2ccccc12)C(=O)NCC(=O)N[C@@H](CCCCN)C(=O)N1CCC[C@H]1C(=O)N[C@H](C(=O)NCC(=O)N[C@@H](CCCCN)C(=O)N[C@@H](CCCCN)C(=O)N[C@@H](CCCNC(=N)N)C(=O)N[C@@H](CCCNC(=N)N)C(=O)N1CCC[C@H]1C(=O)N[C@H](C(=O)N[C@@H](CCCCN)C(=O)N[C@H](C(=O)N[C@@H](Cc1ccc(O)cc1)C(=O)N1CCC[C@H]1C(=O)O)C(C)C)C(C)C)C(C)C [TMR-ACTH partial peptide],–,–,–,98.9
